# Assay results as given in patent publication US5618795A, “Dibekacin derivatives and arbekacin derivatives active against resistant bacteria, and the production thereof” (Zaidan Hojin Biseibutsu Kagaku Kenkyu Kai, priority 1992, dated 1997).
# Where two headings read alike, the source gives them in different places.
# Key:
# [1] = system: clinically isolated strains of MRSA; experiment: Antibacterial MIC spectra against 50 clinically isolated strains of MRSA; type: cell-based, methicillin-resistant Staphylococcus aureus; details: Staphylococcus aureus; for MIC50: 50% of the 50 MRSA strains inhibited, read-out: MIC50; for MIC: range over 50 clinically isolated strains of MRSA, read-out: Antibacterial MIC spectra
# Description: (§1) Minimum growth inhibitory concentrations (MIC) of each of 2"-amino-2"-deoxyarbekacin (Compound Ia), 2"-amino-5,2"-dideoxyarbekacin (Compound Ib), 2"-amino-2"-deoxydibekacin (Compound IIa) and 2"-amino-5,2"-dideoxydibekacin (Compound IIb) against various bacteria (20 strains) and against clinically isolated strains of MRSA (50 strains) were determined by standard serial dilution method on Muller-Hinton's agar medium (as estimated after cultivating at 27° C. for 18 hours), and the test results obtained are shown in TABLE 3 and TABLE 4, respectively.
# Note:- MIC50 or MIC90 represents the concentration of tested
# active compound at which 50% or 90% of the total numbers of the bacterial
# strains tested were inhibited from their growth. DKB denotes dibekacin,
# (§2) Minimum growth inhibitory concentrations (MIC) of each of 2"-amino-5,2"-dideoxy-5-epi-fluoroarbekacin (Compound XVIa) and 2"-amino-5,2"-dideoxy-5-epi-aminoarbekacin (Compound XVIb) against various bacteria (18 strains) and against clinically isolated strains of MRSA (50 strains) were determined by standard serial dilution method on Muller-Hinton's agar medium (as estimated after cultivation at 27° C. for 18 hours), and the test results obtained are shown in TABLE 5 and TABLE 6, respectively.
# [2] = system: strain of MRSA which exhibits a moderate resistance to arbekacin; experiment: Minimum growth inhibitory concentration against MRSA strain moderately resistant to arbekacin; type: cell-based, methicillin-resistant Staphylococcus aureus; details: Staphylococcus aureus, read-out: minimum growth inhibitory concentration of arbekacin
# B. cereus ATCC10702 = experiment: MIC by standard serial dilution method on Muller-Hinton's agar; type: cell-based; details: Bacillus cereus, ATCC10702; Table 3; 27° C., 18 hours; read-out: MIC
# Description: as §1
# E. coli K-12 ML1410 = experiment: as above; type: cell-based; details: Escherichia coli, K12ML1410; Table 3; 27° C., 18 hours
# Description: as §1
# mice = experiment: Acute toxicity, single intravenous administration to mice; type: in vivo; details: mice / mammals
# Excerpt: (§3) 50% Lethal dosages (LD50, observations for two weeks) of the new compounds of this invention as estimated upon single intravenous administration to mice (ICR-strain, 4 weeks old, female) are as follows:
# (§4) 50% Lethal dosages (LD50, observations for two weeks) of the new compounds of general formula (XVI) according to the seventh aspect of this invention as estimated upon single intravenous administration to mice (ICR-strain, 4 weeks old, female) are as follows: […]
# [3] = as above; type: in vivo; details: mouse, in vivo, iv
# Excerpt: as §3, §4
# Solubility in water = type: physicochemical
# [4] = system: gram-positive and gram-negative bacteria; experiment: Antibacterial activities against gram-positive and gram-negative bacteria; type: cell-based
# Description: as §1, §2
# P. aeruginosa TI-13 = experiment: MIC by standard serial dilution method on Muller-Hinton's agar; type: cell-based; details: Pseudomonas aeruginosa, TI13, 18 h
# Description: as §1, §2
# S. epidermidis 109 = experiment: as above; type: cell-based; details: Staphylococcus epidermidis, 109; Table 3; 27° C., 18 hours; read-out: MIC
# Description: as §1, §2
# [5] = system: Shigella dysenteriae JSI1910; experiment: as above; type: cell-based; details: JSI1910, 18 h
# Description: as §1, §2
# E. coli K-12 ML1629 = experiment: as above; type: cell-based; details: Escherichia coli, K12ML1629; Table 3; 27° C., 18 hours; read-out: MIC
# Description: as §1, §2
# [6] = system: Providencia rettgeri GN311; experiment: as above; type: cell-based; details: GN311, Table 3, 27° C., 18 hours, read-out: MIC
# Description: as §1, §2
# P. aeruginosa PST1 = experiment: as above; type: cell-based; details: Pseudomonas aeruginosa, Table 3, 27° C., 18 hours
# Description: as §1, §2
# [7] = system: Klebsiella pneumoniae PCI602; experiment: as above; type: cell-based; details: PCI602, Table 3, 27° C., 18 hours, read-out: MIC
# Description: as §1, §2
# Proteus vulgaris OX19 = experiment: as above; type: cell-based; details: OX19, Table 3, 27° C., 18 hours, read-out: MIC
# Description: as §1, §2
# [8] = system: Staphylococcus aureus FDA209P; experiment: as above; type: cell-based; details: Table 3, 27° C., 18 hours
# Description: as §1, §2
# P. aeruginosa H9 = experiment: as above; type: cell-based; details: Pseudomonas aeruginosa, H9; Table 3; 27° C., 18 hours; read-out: MIC
# Description: as §1, §2
# [9] = system: Pseudomonas aeruginosa A3; experiment: as above; type: cell-based; details: A3, Table 3, 27° C., 18 hours, read-out: MIC
# Description: as §1, §2
# Escherichia coli NIHJ = experiment: as above; type: cell-based; details: Table 3, 27° C., 18 hours
# Description: as §1, §2
# Salmonella typhi T-63 = experiment: as above; type: cell-based; details: Salmonella enterica, Table 3, 27° C., 18 hours
# Description: as §1, §2
# E. coli JR66/W677 = experiment: as above; type: cell-based; details: Escherichia coli, JR66/W677, 18 h
# Description: as §1, §2
# E. coli K-12 LA290 R55 = experiment: as above; type: cell-based; details: Escherichia coli, K12LA290R55, 18 h
# Description: as §1, §2
# S. aureus Smith = experiment: as above; type: cell-based; details: Staphylococcus aureus; Table 3; 27° C., 18 hours
# Description: as §1, §2
# Bacillus subtilis PCI219 = experiment: as above; type: cell-based; details: Table 3, 27° C., 18 hours
# Description: as §1, §2
# Serratia marcescens = experiment: as above; type: cell-based; details: Table 3, 27° C., 18 hours, read-out: MIC
# Description: as §1, §2
structure (smiles),measurement,setting,value
"NCC[C@H](O)C(=O)N[C@@H]1C[C@H](N)[C@@H](O[C@H]2O[C@H](CN)CC[C@H]2N)[C@H](O)[C@H]1O[C@H]1O[C@H](CO)[C@@H](O)[C@H](N)[C@H]1O [ABK, (S)-1-N-(4-amino2-hydroxybutyryl)dibekacin, reference compound]",MIC50,"[1]; 27° C., 18 hours",0.39 µg/mL
same,MIC90,"[1]; 90% of the 50 MRSA strains inhibited, 27° C., 18 hours, read-out: MIC90",6.25 µg/mL
same,MIC,"[1]; 27° C., 18 hours",0.2 to 6.25 µg/mL
same,MIC,[2],6.25 to 12.5 µg/mL
"NCC[C@H](O)C(=O)N[C@@H]1C[C@H](N)[C@@H](O[C@H]2O[C@H](CN)CC[C@H]2N)C[C@H]1O[C@H]1O[C@H](CO)[C@@H](O)[C@H](N)[C@H]1N [Compound Ib, 2""-Amino-5,2""-dideoxyarbekacin]",MIC90,"[1]; MRSA, 18 h",1.56 µg/mL
same,MIC50,"[1]; 27° C., 18 hours",0.78 µg/mL
same,MIC,"[1]; 27° C., 18 hours",0.2 to 3.13 µg/mL
same,MIC,B. cereus ATCC10702,0.78 µg/mL
same,MIC,E. coli K-12 ML1410,1.56 µg/mL
same,acute toxicity (in words),mice,"higher acute toxicity to mice than that of 2""-amino-2""-deoxyarbekacin"
same,LD50 at 336 h,[3],50 to 100 mg/kg
same,Solubility,Solubility in water,easily soluble in water
same,antibacterial activity (in words),[4],broad and excellent antibacterial activity
same,MIC,P. aeruginosa TI-13,1.56 µg/mL
same,MIC,S. epidermidis 109,0.39 µg/mL
same,MIC,[5],1.56 µg/mL
same,MIC,E. coli K-12 ML1629,1.56 µg/mL
same,MIC,[6],0.78 µg/mL
same,MIC,P. aeruginosa PST1,6.25 µg/mL
same,MIC,[7],0.78 µg/mL
same,MIC,Proteus vulgaris OX19,0.78 µg/mL
same,MIC,[8],≤ 0.2 µg/mL
same,MIC,P. aeruginosa H9,3.13 µg/mL
same,MIC,[9],0.39 µg/mL
same,MIC,Escherichia coli NIHJ,0.39 µg/mL
same,MIC,Salmonella typhi T-63,0.78 µg/mL
same,MIC,E. coli JR66/W677,3.13 µg/mL
same,MIC,E. coli K-12 LA290 R55,0.78 µg/mL
same,MIC,S. aureus Smith,≤ 0.2 µg/mL
same,MIC,Bacillus subtilis PCI219,≤ 0.2 µg/mL
same,MIC,Serratia marcescens,6.25 µg/mL
